Results taken from US20230137943A1, “PHOTOPROXIMITY PROFILING OF PROTEIN-PROTEIN INTERACTIONS IN CELLS” (The University of Chicago, priority 2019, published 2023).

Molecular target: T1, KEAP1-SNAP protein (Homo sapiens, UniProt P16455+Q14145, A127T/A154D/C150Q/C62A/E30R/G131K/G132T/G153L/K125A/K32I/L33F/M134L/N157G/Q115S/Q116H/R128A/R135S/S151G/S152D/S159E)
T1 construct: expressed in transfected cells; host or cells: HEK293T, lentiviral transduction with pDC-006, blasticidin selection
Assay: Probe dose response: labeling of KEAP1-SNAP fusion in live cells (Western blot)
Type: cell-based
Protocol: PP1 close response and viability assay: Dose response—Each well of a 6-well plate was seeded with 300,000 HEK293T cells stably expressing either SNAP-FLAG or KEAP-SNAP. After reaching ˜90% confluency the growth media was removed, cells washed with DPBS, and treated with varying concentrations (0, 0.5, 1, 5, 15, 45 μM) of photoproximity probe PP1 in 500 μL serum-free DMEM for 2 hours at 37° C. Post treatment, media was aspirated and non-reacted probe washed out with 3 mL full DMEM over 40 minutes, changing the media twice. Cells were harvested, washed, and lysed in DPBS containing protease inhibitor using a tip sonicator. Lysate was normalized to 1 mg/mL then diluted with loading buffer and run on SDS-PAGE gel that was transferred by western blot to nitrocellulose. The nitrocellulose membrane was stained for biotin and Flag-Tag using streptavidin IR dye (Li-cor #926-32230; Li-cor Biosciences, Lincoln, Nebr., United States of America) and anti-Flag (Sigma #F3165, Sigma-Aldrich, St. Louis, Mo., United States of America; Li-cor #926-68072, Li-cor Biosciences, Lincoln, Nebr., United States of America). Fluorescence images were collected using an Odyssey infrared imager (Li-cor Biosciences, Lincoln, Nebr., United States of America).
Both C- and N-terminal SNAP-Tag fusions of full-length, human KEAP1, in each case separated by a short linker were cloned. […] Both C- and N-terminal SNAP fusions were functional, as indicated by dose-dependent labeling with PP1 in live cells. […] Finally, it was expected that identification of probe-labeled binding partners, and therefore proteins proximal to KEAP1 in cells, would be improved by quantitative proteomic differentiation of enriched vs. background proteins. Therefore, SILAC-labeled cultures expressing both N-terminal (referred to as SNAP-KEAP1) and C-terminal (referred to as KEAP1-SNAP) fusion proteins with light and heavy arginine and lysine were prepared. Matched cultures of heavy and light cells, each expressing the same SNAP-KEAP1 or KEAP1-SNAP construct, were then treated with PP1 probe or vehicle for 2 hr. […]

T1 sequence (Q14145+P16455 fused with the stated changes): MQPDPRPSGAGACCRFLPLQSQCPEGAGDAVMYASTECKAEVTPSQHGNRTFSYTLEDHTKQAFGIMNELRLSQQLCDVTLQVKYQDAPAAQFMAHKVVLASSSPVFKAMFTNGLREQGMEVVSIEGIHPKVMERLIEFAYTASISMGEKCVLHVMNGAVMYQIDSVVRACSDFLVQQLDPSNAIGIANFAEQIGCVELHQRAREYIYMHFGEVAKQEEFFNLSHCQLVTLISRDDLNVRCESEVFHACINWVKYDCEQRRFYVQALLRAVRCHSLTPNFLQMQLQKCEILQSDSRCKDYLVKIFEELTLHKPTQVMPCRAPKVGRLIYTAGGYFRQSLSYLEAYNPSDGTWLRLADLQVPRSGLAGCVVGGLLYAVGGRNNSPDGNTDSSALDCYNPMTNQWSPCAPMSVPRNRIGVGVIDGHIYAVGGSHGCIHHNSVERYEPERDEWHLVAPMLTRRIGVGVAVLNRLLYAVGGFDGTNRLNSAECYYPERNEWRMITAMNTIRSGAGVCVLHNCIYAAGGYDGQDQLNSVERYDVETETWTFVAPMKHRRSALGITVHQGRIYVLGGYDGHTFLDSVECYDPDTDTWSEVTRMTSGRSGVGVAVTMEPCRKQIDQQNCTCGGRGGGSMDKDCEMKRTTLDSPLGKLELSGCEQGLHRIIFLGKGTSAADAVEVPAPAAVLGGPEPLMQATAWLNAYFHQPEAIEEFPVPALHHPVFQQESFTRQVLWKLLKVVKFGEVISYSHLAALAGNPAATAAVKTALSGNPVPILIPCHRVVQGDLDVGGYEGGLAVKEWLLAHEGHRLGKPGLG

| EC50 of KEAP1-SNAP fusion labeling (PP1, live HEK293T cells, 2 hr, not irradiated) | Concentration at which protein is labeled (AC1 0-50 μM, 1 or 2 hours, live HEK293T cells) | Cell permeability (AC1, biotin-labeling of SNAP-FLAG-KEAP1 in live HEK293T cells) | SMILES |
| --- | --- | --- | --- |
| low micromolar |  |  | COc1cc(C(C)OC(=O)NC(CCCCNC(=O)CCC2(C)N=N2)C(=O)NCCCCCNC(=O)CCCCC2SCC3NC(=O)NC32)c([N+](=O)[O-])cc1OCCCC(=O)NCc1ccc(COc2nc(N)nc3[nH]cnc23)cc1 (stereo not drawn) [PP1] |
|  | low micromolar concentrations | cell permeable | COc1cc(COC(=O)NC(CCCCNC(=O)CCC2(C)N=N2)C(=O)NCCCCC2SCC3NC(=O)NC32)c([N+](=O)[O-])cc1OCCCC(=O)NCc1ccc(COc2nc(N)nc3[nH]cnc23)cc1 (stereo not drawn) [AC1] |
